Data on two compounds can be found in ChEMBL document CHEMBL1681705, “Optimisation of ITK inhibitors through successive iterative design cycles” (Bioorg Med Chem Lett, 2011).

The target of assay [1] is Serine/threonine-protein kinase PLK2 (Homo sapiens) (UniProt Q9NYY3). In words: Inhibition of Snk at 1 uM.
The target in assay [2] is Epidermal growth factor receptor (Homo sapiens) (UniProt P00533). As to the kind of experiment: Inhibition of EGFR at 1 uM; values are per cent of control.
Assay [3] concerns the target T1, Tyrosine-protein kinase ZAP-70 (Homo sapiens) (UniProt P43403).
T1 sequence (whole entry): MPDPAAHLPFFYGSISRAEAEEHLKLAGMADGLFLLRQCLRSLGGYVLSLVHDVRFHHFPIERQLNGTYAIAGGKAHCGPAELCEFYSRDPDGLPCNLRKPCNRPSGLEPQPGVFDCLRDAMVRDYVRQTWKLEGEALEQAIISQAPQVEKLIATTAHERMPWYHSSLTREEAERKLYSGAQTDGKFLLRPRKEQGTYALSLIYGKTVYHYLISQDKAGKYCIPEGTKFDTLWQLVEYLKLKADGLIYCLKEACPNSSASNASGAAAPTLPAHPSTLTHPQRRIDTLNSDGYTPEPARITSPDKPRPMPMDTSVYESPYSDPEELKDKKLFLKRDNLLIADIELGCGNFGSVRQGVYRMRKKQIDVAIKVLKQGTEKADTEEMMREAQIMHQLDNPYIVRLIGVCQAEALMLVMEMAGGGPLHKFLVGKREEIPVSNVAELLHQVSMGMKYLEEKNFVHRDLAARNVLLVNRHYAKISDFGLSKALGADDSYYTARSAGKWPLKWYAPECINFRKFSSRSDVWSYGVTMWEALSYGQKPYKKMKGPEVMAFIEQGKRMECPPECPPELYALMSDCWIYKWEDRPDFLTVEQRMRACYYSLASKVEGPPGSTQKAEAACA
In words: Inhibition of ZAP70 at 0.1 uM; values are per cent of control.

The target in assay [4] is Mitogen-activated protein kinase 9 (Homo sapiens) (UniProt P45984). In words: Inhibition of JNK2a2 at 1 uM. Particulars: values are per cent of control.
Assay [5] is described as follows: Inhibition of PKA at 0.1 uM; values are per cent of control.
Assay [6] addresses Tyrosine-protein kinase Lyn (Homo sapiens) (UniProt P07948). As to the kind of experiment: Inhibition of Lyn at 0.1 uM; values are per cent of control.
Assay [7] has as its target Vascular endothelial growth factor receptor 2 (Homo sapiens) (UniProt P35968). As to the kind of experiment: Inhibition of KDR at 0.1 uM; values are per cent of control.
Assay [8] concerns the target Fibroblast growth factor receptor 3 (Homo sapiens) (UniProt P22607). In words: Inhibition of FGFR3 at 1 uM; values are per cent of control.
In assay [9] the target is T2, Serine/threonine-protein kinase Nek2 (Homo sapiens) (UniProt P51955).
T2 sequence (whole entry): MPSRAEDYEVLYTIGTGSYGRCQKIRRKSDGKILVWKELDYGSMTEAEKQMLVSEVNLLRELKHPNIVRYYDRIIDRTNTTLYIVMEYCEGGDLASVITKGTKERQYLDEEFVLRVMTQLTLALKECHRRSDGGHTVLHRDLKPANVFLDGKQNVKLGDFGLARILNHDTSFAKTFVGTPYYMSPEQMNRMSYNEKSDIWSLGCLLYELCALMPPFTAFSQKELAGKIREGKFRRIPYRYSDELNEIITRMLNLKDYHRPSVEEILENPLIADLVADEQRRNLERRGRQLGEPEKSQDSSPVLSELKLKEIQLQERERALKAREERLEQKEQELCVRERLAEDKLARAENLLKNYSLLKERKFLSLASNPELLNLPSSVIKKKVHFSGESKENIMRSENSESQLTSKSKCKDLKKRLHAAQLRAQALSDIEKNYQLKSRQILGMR
In words: Inhibition of NEK2 at 0.1 uM; values are per cent of control.

Assay [10] addresses Tyrosine-protein kinase BTK (Homo sapiens) (UniProt Q06187). In words: Inhibition of BTK at 0.1 uM; values are per cent of control.
The target of assay [11] is BDNF/NT-3 growth factors receptor (Homo sapiens) (UniProt Q16620). As to the kind of experiment: Inhibition of TrkB at 0.1 uM; values are per cent of control.
Chain of BDNF/NT-3 growth factors receptor (Homo sapiens) (Q16620 32-822 limits assumed): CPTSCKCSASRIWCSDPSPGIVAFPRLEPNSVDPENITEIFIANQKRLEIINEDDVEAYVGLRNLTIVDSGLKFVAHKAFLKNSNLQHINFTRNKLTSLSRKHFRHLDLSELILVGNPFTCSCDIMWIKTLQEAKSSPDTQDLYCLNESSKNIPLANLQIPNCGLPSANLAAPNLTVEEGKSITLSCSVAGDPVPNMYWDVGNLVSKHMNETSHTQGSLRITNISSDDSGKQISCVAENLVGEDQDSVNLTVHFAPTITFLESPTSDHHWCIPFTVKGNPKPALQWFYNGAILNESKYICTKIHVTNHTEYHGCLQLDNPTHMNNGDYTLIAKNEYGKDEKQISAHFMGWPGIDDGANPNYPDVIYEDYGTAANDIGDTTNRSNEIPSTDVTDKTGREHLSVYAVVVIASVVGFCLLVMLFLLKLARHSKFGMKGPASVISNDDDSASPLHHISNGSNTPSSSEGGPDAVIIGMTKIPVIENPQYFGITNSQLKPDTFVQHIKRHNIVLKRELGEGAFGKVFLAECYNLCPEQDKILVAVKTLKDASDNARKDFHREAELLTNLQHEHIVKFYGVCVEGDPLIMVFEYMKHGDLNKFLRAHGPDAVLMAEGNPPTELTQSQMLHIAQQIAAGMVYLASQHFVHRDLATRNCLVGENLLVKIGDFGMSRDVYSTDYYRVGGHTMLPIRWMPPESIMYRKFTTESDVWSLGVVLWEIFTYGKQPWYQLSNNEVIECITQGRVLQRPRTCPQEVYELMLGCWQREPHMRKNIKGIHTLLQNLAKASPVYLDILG
Assay [12] addresses Tyrosine-protein kinase Fer (Homo sapiens) (UniProt P16591). In words: Inhibition of Fer at 0.1 uM; values are per cent of control.
The target of assay [13] is Myosin light chain kinase, smooth muscle (Homo sapiens) (UniProt Q15746). As to the kind of experiment: Inhibition of MLCK at 0.1 uM; values are per cent of control.
Chain of Myosin light chain kinase, smooth muscle (Homo sapiens) (Q15746 whole entry): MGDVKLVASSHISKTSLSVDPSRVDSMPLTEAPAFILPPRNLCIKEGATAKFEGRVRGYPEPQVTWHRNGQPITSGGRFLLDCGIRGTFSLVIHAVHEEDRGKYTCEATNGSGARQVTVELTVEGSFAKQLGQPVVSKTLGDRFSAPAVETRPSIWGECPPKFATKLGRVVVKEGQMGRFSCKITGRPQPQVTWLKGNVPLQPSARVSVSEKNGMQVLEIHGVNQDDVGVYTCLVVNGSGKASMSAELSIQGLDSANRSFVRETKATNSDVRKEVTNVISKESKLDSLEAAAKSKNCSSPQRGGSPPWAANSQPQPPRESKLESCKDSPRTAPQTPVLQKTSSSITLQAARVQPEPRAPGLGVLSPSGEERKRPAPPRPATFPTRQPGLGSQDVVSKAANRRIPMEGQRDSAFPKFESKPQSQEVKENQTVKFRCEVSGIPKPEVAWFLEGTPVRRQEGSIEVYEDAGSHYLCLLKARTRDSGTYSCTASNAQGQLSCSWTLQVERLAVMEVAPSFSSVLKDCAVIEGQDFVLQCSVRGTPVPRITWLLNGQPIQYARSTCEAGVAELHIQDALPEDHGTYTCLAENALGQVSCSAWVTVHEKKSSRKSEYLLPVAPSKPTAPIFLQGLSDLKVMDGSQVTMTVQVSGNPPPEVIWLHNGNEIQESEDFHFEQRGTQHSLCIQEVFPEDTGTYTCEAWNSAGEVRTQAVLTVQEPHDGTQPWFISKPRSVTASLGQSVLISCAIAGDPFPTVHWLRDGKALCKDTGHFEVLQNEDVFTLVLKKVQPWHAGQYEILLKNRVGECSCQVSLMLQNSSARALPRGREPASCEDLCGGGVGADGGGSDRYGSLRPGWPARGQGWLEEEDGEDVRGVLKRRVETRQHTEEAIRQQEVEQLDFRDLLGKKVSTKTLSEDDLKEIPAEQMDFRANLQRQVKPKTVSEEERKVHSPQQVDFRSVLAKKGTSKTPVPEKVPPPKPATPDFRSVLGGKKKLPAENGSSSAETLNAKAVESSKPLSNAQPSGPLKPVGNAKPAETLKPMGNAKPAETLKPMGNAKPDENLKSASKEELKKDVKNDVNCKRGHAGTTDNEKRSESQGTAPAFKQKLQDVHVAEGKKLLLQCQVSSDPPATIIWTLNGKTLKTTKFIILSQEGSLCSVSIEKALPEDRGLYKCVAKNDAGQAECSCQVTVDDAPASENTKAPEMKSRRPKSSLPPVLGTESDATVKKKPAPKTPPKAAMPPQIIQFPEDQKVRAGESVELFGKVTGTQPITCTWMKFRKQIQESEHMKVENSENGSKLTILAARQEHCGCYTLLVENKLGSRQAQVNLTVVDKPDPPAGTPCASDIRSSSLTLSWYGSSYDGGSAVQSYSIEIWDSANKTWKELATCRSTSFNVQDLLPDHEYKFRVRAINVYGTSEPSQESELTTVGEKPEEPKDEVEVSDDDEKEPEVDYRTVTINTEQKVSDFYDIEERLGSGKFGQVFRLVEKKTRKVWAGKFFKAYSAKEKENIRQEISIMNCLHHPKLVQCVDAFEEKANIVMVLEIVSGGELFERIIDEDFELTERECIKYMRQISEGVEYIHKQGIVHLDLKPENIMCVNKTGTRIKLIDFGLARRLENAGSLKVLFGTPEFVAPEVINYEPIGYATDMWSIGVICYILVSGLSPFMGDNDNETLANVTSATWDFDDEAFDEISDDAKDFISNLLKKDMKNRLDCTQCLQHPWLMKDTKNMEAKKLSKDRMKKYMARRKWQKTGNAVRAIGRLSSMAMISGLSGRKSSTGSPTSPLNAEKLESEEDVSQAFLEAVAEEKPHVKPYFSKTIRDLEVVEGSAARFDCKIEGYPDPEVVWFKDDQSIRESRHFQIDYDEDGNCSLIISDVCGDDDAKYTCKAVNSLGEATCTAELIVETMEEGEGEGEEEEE

Chain of Serine/threonine-protein kinase PLK2 (Homo sapiens) (Q9NYY3 whole entry, looked up): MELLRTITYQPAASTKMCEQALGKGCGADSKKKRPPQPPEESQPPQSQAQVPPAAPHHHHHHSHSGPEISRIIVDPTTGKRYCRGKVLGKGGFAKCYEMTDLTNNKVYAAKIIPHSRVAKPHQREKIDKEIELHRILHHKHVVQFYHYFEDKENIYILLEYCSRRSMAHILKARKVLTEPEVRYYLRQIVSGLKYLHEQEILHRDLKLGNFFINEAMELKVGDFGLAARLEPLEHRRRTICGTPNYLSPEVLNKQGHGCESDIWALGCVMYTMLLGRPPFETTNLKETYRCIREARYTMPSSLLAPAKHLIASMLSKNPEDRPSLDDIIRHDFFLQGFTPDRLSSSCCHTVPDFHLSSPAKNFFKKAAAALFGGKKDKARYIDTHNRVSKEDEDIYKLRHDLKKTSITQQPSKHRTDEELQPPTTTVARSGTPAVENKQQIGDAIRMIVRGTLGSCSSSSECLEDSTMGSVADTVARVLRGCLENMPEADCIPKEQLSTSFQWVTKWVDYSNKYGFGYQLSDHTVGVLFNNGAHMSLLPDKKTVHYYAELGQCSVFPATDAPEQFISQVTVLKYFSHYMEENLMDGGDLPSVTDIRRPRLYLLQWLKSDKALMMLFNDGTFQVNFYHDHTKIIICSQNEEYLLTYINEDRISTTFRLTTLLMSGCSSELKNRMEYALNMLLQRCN
Chain of Tyrosine-protein kinase Lyn (Homo sapiens) (P07948 2-512 limits assumed): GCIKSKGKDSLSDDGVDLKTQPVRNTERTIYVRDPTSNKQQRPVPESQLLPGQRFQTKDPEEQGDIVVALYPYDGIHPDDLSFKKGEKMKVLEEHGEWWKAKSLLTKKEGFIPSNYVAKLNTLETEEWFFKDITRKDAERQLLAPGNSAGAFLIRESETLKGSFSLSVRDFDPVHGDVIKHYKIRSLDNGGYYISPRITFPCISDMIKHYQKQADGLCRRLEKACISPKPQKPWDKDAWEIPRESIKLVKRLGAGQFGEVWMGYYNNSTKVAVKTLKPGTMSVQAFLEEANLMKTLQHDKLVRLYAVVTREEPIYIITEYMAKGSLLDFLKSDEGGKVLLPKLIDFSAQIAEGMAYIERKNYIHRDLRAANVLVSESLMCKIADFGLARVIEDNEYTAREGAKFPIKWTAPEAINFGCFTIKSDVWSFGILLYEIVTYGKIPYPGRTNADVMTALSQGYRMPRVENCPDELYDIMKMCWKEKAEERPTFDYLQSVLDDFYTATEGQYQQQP
Chain of Fibroblast growth factor receptor 3 (Homo sapiens) (P22607 23-806 limits assumed): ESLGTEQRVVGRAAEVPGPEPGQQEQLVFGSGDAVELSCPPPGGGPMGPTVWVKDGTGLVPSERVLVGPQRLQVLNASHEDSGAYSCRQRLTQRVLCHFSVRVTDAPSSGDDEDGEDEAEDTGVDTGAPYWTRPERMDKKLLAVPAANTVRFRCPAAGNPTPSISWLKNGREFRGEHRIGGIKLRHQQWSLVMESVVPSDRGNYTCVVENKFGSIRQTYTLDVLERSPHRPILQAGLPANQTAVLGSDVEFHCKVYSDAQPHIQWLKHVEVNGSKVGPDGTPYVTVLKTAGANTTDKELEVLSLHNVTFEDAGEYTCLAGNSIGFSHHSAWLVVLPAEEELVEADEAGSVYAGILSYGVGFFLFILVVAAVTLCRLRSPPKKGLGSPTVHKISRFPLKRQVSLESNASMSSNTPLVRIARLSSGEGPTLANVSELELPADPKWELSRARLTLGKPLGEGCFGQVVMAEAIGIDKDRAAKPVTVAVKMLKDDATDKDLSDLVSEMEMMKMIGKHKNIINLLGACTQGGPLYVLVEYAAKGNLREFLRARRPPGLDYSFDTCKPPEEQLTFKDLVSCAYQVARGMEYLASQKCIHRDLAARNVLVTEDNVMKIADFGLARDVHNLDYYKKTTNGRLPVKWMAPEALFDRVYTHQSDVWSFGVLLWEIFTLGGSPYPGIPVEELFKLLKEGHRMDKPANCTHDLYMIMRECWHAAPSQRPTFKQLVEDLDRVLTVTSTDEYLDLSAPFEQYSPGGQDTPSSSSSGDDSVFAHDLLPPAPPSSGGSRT

The term inhibition denotes the relative decrease from the control value, in per cent. `Cc1ccc2cc(-c3n[nH]c4ccc(NC5CCNC5)cc34)[nH]c2c1` (stereo unspecified): in assay [1], the inhibition was 76%. Moreover, the residual activity in assay [2] was 99%; in [3] it was 93%; in [4], 87%; in [5] it was 42%; in assay [6], 1%; in assay [7], 28%. The residual activity was 1% in [8]; 79% in [9]; 69% in assay [10]; 2% in [11]; 5% in assay [12]; 86% in assay [13].
As for `Cc1ccc2cc(-c3n[nH]c4ccc(NC5CCN(Cc6ccccc6)CC5)cc34)[nH]c2c1`, in assay [1], the inhibition stood at 87%. Also, the residual activity in [2] was -8%; in assay [3], 93%; in [4], 88%; in assay [5], 41%; in assay [6], 15%; in assay [7], 45%. Further, the residual activity in assay [8] was -3%; in assay [9] it was 91%; in [10] it was 38%; in assay [11], 1%; in [12], 49%; in assay [13], 89%.
